Source: ChEMBL document CHEMBL5465560, “Selectivity Literature for EUbOPEN Chemogenomic Library” (2024)
Values belong to the compound of their own block, whether it stands above or below them.

How the values were obtained:
[1] = target: Non-receptor tyrosine-protein kinase TYK2 (Homo sapiens, UniProt P29597); test: Selectivity interaction (KinomeScan (DiscoverX)) EUB0000666a TYK2; conditions: at 10 µM
[2] = target: Serine/threonine-protein kinase VRK2 (Homo sapiens) (UniProt Q86Y07); test: Selectivity interaction (KinomeScan (DiscoverX)) EUB0000666a VRK2; conditions: at 10 µM
Serine/threonine-protein kinase VRK2 (Homo sapiens), sequence (Q86Y07 whole entry): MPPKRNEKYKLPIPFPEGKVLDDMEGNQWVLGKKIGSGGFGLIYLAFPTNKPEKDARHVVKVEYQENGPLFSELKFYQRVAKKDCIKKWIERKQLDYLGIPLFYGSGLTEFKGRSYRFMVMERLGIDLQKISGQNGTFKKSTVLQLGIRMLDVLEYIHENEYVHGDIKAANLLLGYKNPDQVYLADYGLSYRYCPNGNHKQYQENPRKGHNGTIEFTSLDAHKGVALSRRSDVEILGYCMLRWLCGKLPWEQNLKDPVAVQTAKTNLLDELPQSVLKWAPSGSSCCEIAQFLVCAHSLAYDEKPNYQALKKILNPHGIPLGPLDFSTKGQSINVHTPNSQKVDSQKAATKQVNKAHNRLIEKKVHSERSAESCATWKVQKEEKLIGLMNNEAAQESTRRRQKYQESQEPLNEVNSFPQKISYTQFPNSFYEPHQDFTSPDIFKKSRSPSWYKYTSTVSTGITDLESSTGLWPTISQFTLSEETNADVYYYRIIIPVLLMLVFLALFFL

[3] = target: T1, 3-phosphoinositide-dependent protein kinase 1 (Homo sapiens) (UniProt O15530); test: Selectivity interaction (Kinase panel (literature)) EUB0001199aCl PDPK1; conditions: at 1 µM
T1 sequence (whole entry): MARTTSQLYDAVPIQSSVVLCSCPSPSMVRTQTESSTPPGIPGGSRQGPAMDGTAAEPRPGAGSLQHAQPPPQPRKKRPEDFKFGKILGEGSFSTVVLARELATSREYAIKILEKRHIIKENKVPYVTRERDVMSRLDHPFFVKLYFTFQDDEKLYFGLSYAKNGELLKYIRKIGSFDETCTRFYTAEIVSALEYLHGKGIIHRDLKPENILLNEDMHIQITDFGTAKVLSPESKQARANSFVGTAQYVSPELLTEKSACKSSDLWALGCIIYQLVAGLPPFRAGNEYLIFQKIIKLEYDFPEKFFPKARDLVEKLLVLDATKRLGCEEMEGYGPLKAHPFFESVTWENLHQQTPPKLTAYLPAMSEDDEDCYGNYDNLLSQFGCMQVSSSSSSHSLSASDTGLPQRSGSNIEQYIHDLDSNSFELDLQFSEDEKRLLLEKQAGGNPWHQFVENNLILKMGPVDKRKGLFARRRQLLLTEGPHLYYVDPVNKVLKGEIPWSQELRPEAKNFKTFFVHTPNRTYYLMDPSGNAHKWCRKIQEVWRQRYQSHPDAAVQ

[4] = target: T2, cAMP-dependent protein kinase catalytic subunit PRKX (Homo sapiens) (UniProt P51817); test: Selectivity interaction (KinomeScan (DiscoverX)) EUB0000607a PRKX; conditions: at 10 µM
T2 sequence (whole entry): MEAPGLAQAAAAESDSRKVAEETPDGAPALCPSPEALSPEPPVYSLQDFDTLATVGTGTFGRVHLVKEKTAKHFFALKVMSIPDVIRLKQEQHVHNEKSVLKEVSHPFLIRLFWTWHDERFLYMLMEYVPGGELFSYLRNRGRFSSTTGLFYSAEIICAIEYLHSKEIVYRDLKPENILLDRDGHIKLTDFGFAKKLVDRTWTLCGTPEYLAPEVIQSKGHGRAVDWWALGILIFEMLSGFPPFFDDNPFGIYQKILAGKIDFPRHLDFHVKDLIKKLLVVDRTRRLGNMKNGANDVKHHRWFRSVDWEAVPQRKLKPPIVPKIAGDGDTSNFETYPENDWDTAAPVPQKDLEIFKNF

[5] = target: T3, Serine/threonine-protein kinase TAO3 (Homo sapiens) (UniProt Q9H2K8); test: Selectivity interaction (ActivX KiNativ screen (kinase selectivity in THP-1 cell lysates)) EUB0000639a TAOK3; format: subcellular; conditions: lysate
T3 sequence (whole entry): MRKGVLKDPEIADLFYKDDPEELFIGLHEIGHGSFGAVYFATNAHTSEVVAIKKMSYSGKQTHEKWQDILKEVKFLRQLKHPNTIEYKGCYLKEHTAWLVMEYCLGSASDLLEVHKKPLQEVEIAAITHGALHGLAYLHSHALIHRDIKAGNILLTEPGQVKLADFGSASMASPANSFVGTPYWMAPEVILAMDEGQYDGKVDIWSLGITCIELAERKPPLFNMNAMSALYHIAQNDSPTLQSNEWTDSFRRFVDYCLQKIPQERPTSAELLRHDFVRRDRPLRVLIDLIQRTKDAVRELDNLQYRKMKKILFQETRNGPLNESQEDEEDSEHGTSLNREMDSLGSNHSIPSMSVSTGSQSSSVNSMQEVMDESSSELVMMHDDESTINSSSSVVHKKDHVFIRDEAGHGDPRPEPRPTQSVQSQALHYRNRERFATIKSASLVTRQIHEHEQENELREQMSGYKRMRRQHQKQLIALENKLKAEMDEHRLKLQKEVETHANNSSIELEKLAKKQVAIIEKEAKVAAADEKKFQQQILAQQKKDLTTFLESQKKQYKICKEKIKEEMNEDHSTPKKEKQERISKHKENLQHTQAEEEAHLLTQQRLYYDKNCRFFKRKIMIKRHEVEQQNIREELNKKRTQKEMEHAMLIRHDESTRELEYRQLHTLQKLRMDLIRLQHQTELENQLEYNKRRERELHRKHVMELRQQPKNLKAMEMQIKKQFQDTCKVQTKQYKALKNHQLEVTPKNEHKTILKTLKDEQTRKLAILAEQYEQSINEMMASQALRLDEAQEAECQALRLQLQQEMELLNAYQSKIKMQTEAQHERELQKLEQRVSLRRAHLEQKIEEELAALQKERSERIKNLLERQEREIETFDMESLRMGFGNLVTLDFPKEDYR

[6] = target: T4, Histone-lysine N-methyltransferase SUV39H1 (Homo sapiens) (UniProt O43463); test: Selectivity interaction (Methyltransferase screen (Scintillation proximity assays)) EUB0000255b SUV39H1
T4 sequence (whole entry): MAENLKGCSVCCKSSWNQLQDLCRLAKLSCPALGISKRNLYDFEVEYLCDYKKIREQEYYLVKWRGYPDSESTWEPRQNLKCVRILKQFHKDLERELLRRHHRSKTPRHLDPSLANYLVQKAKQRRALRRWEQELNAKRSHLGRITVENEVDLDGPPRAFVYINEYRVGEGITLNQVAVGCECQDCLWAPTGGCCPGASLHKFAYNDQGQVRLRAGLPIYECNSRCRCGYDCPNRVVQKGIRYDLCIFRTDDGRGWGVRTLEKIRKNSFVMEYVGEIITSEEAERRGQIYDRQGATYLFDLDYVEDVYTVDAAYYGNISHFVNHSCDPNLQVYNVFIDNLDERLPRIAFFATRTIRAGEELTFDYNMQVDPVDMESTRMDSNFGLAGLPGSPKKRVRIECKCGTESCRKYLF

[7] = target: Serine/threonine-protein kinase B-raf (Homo sapiens, UniProt P15056, V600E); test: Selectivity interaction (Radiometric kinase assay (using 10 uM ATP)) EUB0000601a BRAF
Serine/threonine-protein kinase B-raf, sequence (P15056 2-766 V600E limits assumed): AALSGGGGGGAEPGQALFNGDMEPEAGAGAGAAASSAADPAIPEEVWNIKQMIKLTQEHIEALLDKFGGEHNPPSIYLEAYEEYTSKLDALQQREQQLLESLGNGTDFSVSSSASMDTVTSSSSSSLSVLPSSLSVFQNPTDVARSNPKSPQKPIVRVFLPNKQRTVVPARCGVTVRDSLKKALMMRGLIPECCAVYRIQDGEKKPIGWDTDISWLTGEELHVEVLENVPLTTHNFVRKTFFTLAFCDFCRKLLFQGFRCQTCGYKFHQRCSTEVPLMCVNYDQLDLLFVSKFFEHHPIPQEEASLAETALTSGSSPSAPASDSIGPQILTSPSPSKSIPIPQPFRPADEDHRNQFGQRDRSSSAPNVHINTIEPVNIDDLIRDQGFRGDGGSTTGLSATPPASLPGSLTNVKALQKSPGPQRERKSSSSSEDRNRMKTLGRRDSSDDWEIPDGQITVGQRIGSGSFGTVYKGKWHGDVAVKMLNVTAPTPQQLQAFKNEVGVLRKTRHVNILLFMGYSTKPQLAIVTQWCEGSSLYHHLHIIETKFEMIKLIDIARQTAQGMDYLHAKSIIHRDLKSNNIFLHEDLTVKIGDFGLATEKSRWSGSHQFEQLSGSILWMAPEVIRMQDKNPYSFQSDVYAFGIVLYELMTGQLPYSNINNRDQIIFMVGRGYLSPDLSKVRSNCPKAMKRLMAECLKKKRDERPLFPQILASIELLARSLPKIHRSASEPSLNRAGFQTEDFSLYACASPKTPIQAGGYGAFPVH

[8] = target: Mitogen-activated protein kinase kinase kinase kinase 1 (Homo sapiens) (UniProt Q92918); test: Selectivity interaction (ActivX KiNativ screen (ex vivo kinase selectivity in human PBMCs)) EUB0001619a MAP4K1; format: cell-based; conditions: PBMC, at 1 µM
Mitogen-activated protein kinase kinase kinase kinase 1 (Homo sapiens), sequence (Q92918 whole entry, looked up): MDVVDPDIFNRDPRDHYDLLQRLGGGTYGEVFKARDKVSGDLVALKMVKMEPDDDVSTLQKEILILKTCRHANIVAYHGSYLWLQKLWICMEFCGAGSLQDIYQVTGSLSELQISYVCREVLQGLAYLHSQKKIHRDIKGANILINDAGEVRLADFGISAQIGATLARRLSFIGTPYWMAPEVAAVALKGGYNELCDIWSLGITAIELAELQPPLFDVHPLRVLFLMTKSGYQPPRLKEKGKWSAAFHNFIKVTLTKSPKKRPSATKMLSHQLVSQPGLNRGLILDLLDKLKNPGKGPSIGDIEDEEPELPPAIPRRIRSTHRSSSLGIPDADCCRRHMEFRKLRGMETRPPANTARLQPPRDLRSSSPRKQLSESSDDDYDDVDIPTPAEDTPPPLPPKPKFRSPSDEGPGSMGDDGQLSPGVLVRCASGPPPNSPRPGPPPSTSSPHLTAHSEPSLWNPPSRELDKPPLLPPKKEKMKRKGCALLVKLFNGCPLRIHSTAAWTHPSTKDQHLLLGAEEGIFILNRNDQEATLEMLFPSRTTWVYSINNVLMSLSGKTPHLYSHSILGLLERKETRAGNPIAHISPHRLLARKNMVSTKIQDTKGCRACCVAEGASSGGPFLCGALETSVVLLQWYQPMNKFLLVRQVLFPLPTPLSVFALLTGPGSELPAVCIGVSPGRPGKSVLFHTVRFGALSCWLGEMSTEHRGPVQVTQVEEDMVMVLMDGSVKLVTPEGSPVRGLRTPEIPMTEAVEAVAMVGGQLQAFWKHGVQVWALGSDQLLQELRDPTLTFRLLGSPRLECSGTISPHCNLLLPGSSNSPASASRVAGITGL

Non-receptor tyrosine-protein kinase TYK2, sequence (P29597 whole entry): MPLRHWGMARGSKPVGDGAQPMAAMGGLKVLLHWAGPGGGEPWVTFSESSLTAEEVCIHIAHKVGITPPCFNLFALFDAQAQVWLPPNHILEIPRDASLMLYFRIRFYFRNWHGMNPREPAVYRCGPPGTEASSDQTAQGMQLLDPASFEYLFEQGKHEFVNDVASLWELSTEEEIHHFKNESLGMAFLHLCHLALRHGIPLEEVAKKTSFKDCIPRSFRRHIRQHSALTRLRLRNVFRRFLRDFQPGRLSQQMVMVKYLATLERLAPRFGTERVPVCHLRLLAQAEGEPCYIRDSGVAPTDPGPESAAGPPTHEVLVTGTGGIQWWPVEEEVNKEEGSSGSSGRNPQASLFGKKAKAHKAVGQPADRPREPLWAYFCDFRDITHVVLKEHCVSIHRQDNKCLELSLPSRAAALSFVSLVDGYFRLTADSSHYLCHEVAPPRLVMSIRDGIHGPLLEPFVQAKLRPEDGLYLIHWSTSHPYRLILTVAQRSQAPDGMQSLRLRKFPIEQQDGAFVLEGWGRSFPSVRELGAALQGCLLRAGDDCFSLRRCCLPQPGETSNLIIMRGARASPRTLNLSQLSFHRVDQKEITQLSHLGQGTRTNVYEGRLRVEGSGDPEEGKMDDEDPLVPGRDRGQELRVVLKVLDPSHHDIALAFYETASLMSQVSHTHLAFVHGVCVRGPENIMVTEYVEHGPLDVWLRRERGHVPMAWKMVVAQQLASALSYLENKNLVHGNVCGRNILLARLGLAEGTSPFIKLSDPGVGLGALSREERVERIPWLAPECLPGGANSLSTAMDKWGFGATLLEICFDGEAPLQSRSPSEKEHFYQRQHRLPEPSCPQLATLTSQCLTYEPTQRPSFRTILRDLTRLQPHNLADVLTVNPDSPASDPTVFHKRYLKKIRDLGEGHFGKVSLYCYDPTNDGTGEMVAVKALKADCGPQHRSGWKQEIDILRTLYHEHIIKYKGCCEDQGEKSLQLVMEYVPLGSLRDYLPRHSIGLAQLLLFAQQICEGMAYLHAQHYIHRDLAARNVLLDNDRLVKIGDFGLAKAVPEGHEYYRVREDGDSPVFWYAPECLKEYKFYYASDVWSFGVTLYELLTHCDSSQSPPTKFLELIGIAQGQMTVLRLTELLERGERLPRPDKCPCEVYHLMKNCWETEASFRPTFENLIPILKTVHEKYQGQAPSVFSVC

Compound: O=C(NOC[C@H](O)CO)c1ccc(F)c(F)c1Nc1ccc(I)cc1F
% of control [1]: 100%
% of control [2]: 100%

% of inhibition [3]: -4%
Compound: CN1Cc2nccc(-c3cn(C)nc3-c3ccc(F)cc3)c2C1=O

Compound: CNC(=O)Nc1ccc(-c2nc(N3CC4CCC(C3)O4)c3cnn(C4CCC5(CC4)OCCO5)c3n2)cc1
% of control [4]: 100%

% of inhibition ([5]; at 0.01 µM): 6.6%
% of inhibition ([5]; at 0.04 µM): -1.6%
% of inhibition ([5]; at 0.2 µM): 6.9%
% of inhibition ([5]; at 1 µM): 12.9%
% of inhibition ([5]; at 5 µM): 41.7%
Compound: CC[C@@H]1[C@H](F)C(=O)N[C@@H]1COc1nccc2cc(C(N)=O)c(OC)cc12 [ZIMLOVISERTIB]

Compound: COCCN1CCC(c2cc(CN(C)C(=O)c3cccc(Oc4ccccc4)c3)ccn2)CC1
% activity ([6]; at 1 µM): > 95%
% activity ([6]; at 10 µM): > 90%

IC50 [7]: > 2 µM
Compound: CCc1cc(Nc2nccc(-c3c(-c4ccc(OC)c(C(=O)Nc5c(F)cccc5F)c4)nc4ccccn34)n2)c(OC)cc1N1CCC(N2CCN(S(C)(=O)=O)CC2)CC1

Compound: N#Cc1cccc(-c2c[nH]c3ncnc(N4CCOCC4)c23)c1
% of inhibition [8]: 6%
